The nature of the data set: Hydrolytic stability in buffered aqueous solutions (HPLC). The data set is classed as physicochemical. Conditions: 40° C., read-out: t1/2 (hr) at 40° C. (converted). The protocol: Hydrolytic stability of valacyclovir and 1-amino-cyclopropanecarboxylic acid 2-(2-amino-6-oxo-1,6-dihydro-purin-9-ylmethoxy)-ethyl ester trifluoroacetic acid salt
Test samples of valacyclovir and 1-amino-cyclopropanecarboxylic acid 2-(2-amino-6-oxo-1,6-dihydro-purin-9-ylmethoxy)-ethyl ester trifluoroacetic acid salt (Example 1) are dissolved in buffered solutions of known pH at a concentration of 100 mcg/mL. Compound samples are prepared in 0.1 N hydrochloric acid for pH 1 and phosphate based buffer for pH2, 4, 6, 8 and 10. Stability is conveniently assessed using a semi-automated HPLC technique. Compound samples are loaded onto an HPLC autosampler incubated at 40° C. Samples are repeatedly injected on the HPLC at specific time intervals. The peak area of the compound samples are monitored by UV detection.
The HPLC system consisted of an Agilent® 1100 autoinjector, pump, degasser and LV detector. A Waters® Atlantis dC-18 column (3 micron, 150×4.6 mm I.D.) is used to separate the degradation products from the compound sample. An isocratic reversed-phase system using ultraviolet detection is used to monitor the peak areas of the compound sample over a 24 hour period. The mobile phase composition is 5% acetonitrile and 95% water with 0.1% trifluoroacetic acid added to the mixture. The flow rate is 1.5 mL/min. The column temperature is 30 degrees Celsius and the injection volume was 10 μL. The UV detector is set at 256 nm and the run time was 9 minutes. Time points are analyzed every 2 hours for each buffer while being incubated at 40 degrees Celsius by the thermostat controlled autosampler.
The peak area of the compound sample is monitored over a 24 hour period at 2 hour intervals. The peak area of the compound sample is plotted versus time for each of the buffers tested. A first order calculation is used to determine the rate constant for each buffer based on the loss of peak area over time. The half-life, in hours, is calculated by dividing 0.693 by the rate constant (k). t1/2 (hr)=0.693/k.

[1] abbreviates: pH = 1, 0.1 N hydrochloric acid.
Where [2] appears, read: pH = 10, phosphate based buffer.

Where two headings read alike, the source gives them in different places.

As for `Nc1nc2c(ncn2COCCOC(=O)C2(N)CC2)c(=O)[nH]1.O=C(O)C(F)(F)F` [Example 1, 1-amino-cyclopropanecarboxylic acid 2-(2-amino-6-oxo-1,6-dihydro-purin-9-ylmethoxy)-ethyl ester trifluoroacetic acid salt], the half-life at 100 mcg/mL reads like this: under setting [1], more than 300 h; (pH = 2, phosphate based buffer) more than 300 h; (pH = 4, phosphate based buffer) more than 300 h; (pH = 6, phosphate based buffer) more than 300 h; (pH = 8, phosphate based buffer) 90.1 h; under setting [2], 23.8 h.
In the case of `CC(C)[C@H](N)C(=O)OCCOCn1cnc2c(=O)[nH]c(N)nc21` [valacyclovir, 2(2-amino-1,6-didydro-6-oxo-9H(purin-9-yl)methoxy)ethyl L-valinate], the half-life at 100 mcg/mL was more than 300 h under setting [1]; more than 300 h (pH = 2, phosphate based buffer); more than 300 h (pH = 4, phosphate based buffer); 69.7 h (pH = 6, phosphate based buffer); 7.8 h (pH = 8, phosphate based buffer); 6.8 h under setting [2].

Values taken from patent US7846937B2, “Cyclopropanecarboxylate esters of acyclovir” (Eli Lilly and Company, priority 2005, dated 2010).
